Laboratory results reported in patent publication US4824837A, “Novel 1,4-dihydropyridine derivatives, process for preparing the same, and agents for treating disorders of circulatory system” (Suntory Limited, priority 1985, dated 1989).
Like-named read-outs stand apart in the source and are kept apart here.

Key:
[1] = system: vascular resistance of the vertebral artery; assay: vascular resistance of the vertebral artery in anesthetized dogs; type: in vivo; details: intravenous injection; for ED30: Canis lupus familiaris, vertebral artery vascular resistance
Description: The pharmacological effect (ED30) of selected 2-chloro-1,4-dihydropyridine derivatives of the present invention with respect to the vascular resistance of the vertebral artery in anesthetized dogs was treated by the following procedures.
Adult dogs of either sex (7-14 kg in body weight) were anesthetized with at first thiopental sodium (35 mg/kg, intraperitoneal), anesthetized with urethane (400 mg/kg, intravenous) and α-chloalose (60 mg/kg, intravenous) and kept under artificial respiration throughout the experiment. After thoracotomy at the left first intercostal space, the vertebral artery was exposed and blood flow was measured with an intracorporeal flow probe connected to an electromagnetic flowmeter (MF-27, Nihon Kohden).
At the same time, continuous measurement of the following parameters was made: systemic blood pressure (mean pressure) at the right femoral artery, the limb lead II ECG, the heart rate with a tachometer triggered by the R wave of ECG, and the vascular resistance determined by loading an electronic divider (EO-601 G, Nihon Kohden) with the mean values of blood pressure and vertebral artery blood flow. All of these parameters were recorded simultaneously on a polygraph (RM-600, Nihon Kohden).
All the test compounds were injected through a cannula inserted into the femoral vein.
The ED30 (μg/kg) values obtained by intravenous injection and the values of T1/2 (min) (the time to reach 50% of the resistance drop) are shown in Table 3, wherein the Compound Numbers are keyed to the Example Numbers.

[2] = system: isolated guinea pig hearts (coronary artery); assay: coronary vascular dilative effect in isolated guinea pig hearts (Langendorff); parameters: species or system Hartley guinea pigs; details: isolated hearts perfused at 37° C., 0.1 ml of diluted solution into the coronary artery
Description: The coronary vascular dilative effect of selected 2-chloro-1,4-dihydropyridine derivatives of the present invention was tested.
Hartley guinea pigs (weight 400-500 g) were killed by a blow on the head and their hearts were immediately isolated. The hearts were perfused with Krebs-Henseleit solution bubbled with a mixture of 95% O2 +5% CO2 and maintained at 37° C. at a constant rate of 6 ml/minute according to Langendorff's method [J. Pharmacol. Methods 2, 143 (1979)]. The perfusion pressure was measured continuously by a pressure transducer. Samples were prepared by emulsifying 1 mg of a test compound in 1 ml of a mixture of dimethylsulfoxide and physiological saline solution (1:9) and diluting with physiological saline solution to the predetermined concentration. 0.1 ml of the diluted solution was administered into the coronary artery via rubber tube connected to an aorta cannula to obtain ED50 (μg/heart) data as shown in Table 2. The numbers of the compounds in the Table correspond respectively to those of the working examples described above.

[3] = system: conscious spontaneously hypertensive rats (SHR); assay: hypotensive action in conscious spontaneously hypertensive rats (SHR); type: in vivo; details: 10 mg/kg orally, starved overnight
Description: Selected compounds of the present invention were tested for their hypotensive action in conscious spontaneously hypertensive rats (SHR).
A group of 17 to 20-week old male SHR were anesthetized with ether and a cannula was inserted into the left femoral artery. At least one day after the operation, the cannula was connected to a pressure transducer and the blood pressure was measured continuously under conscious and unrestrained condition, thereby obtaining the data shown in Table 4. Each of the test compounds as a clear suspension in 0.5% CMC-Na was administered orally at a dose of 10 mg/kg (body weight) to each animal which was starved overnight.

[4] = acute toxicity (LD50) in male mice; details: mouse, in vivo
Description: The acute toxicity (LD50) data of selected compounds of the present invention as administered to two groups of male mice were obtained and the results are shown in Table 5. One group of mice which received peroral administration had been starved overnight. Each of the test compounds was suspended in 0.5% CMC-Na for peroral administration, or dissolved in dimethyl sulfoxide and diluted with physiological saline solution for intravenous injection.

[5] = iv, male mice, read-out: LD50 i.v.
[6] = po, male mice starved overnight, suspended in 0.5% CMC-Na, read-out: LD50 p.o.

| Structure (SMILES) | ED30 [1] | T1/2 (the time to reach 50% of the resistance drop) [1] | further results |
| --- | --- | --- | --- |
| COC(=O)C1=C(Cl)NC(C)=C(C(=O)OCCCCCc2ccccc2)C1c1cccc([N+](=O)[O-])c1 (stereo not drawn) [SUN 5088] | 0.0014 mg/kg | 17.0 min | – |
| CCOC(=O)C1=C(Cl)NC(C)=C(C(=O)OCCN2CCOCC2)C1c1ccccc1[N+](=O)[O-] (stereo not drawn) [SUN 5252] | 0.0036 mg/kg | – | – |
| COC(=O)C1=C(Cl)NC(C)=C(C(=O)OCC2CC2)C1c1cccc([N+](=O)[O-])c1 (stereo not drawn) [SUN 5164] | 0.00022 mg/kg | – | – |
| CCCCCCCOC(=O)C1=C(C)NC(Cl)=C(C(=O)OC)C1c1cccc([N+](=O)[O-])c1 (stereo not drawn) [SUN 5143] | 0.0022 mg/kg | 20.5 min | ED50 [2]: 0.02 μg/heart |
| COC(=O)C1=C(Cl)NC(C)=C(C(=O)OC2CCCN(Cc3ccc(F)cc3)C2)C1c1cccc([N+](=O)[O-])c1 (stereo not drawn) [SUN 5142, 2-Chloro-5-[1-(4-fluorobenzyl)piperidin-3-yl]oxycarbonyl-3-methoxycarbonyl-6-methyl-4-(3-nitrophenyl)-1,4-dihydroppyridine] | 0.0028 mg/kg | > 30 min | ED50 [2]: 0.03 μg/heart |
| COC(=O)C1=C(Cl)NC(C)=C(C(=O)OCCOc2ccccc2)C1c1cccc([N+](=O)[O-])c1 (stereo not drawn) [SUN 5151] | 0.0036 mg/kg | 10.5 min | – |
| COC(=O)C1=C(C)NC(C)=C(C(=O)OCCN(C)Cc2ccccc2)C1c1cccc([N+](=O)[O-])c1 (stereo not drawn) [Nicardipine, reference compound] | – | – | Blood pressure drop, Maximum drop [3]: 39%; Blood pressure drop, 6 hours [3]: 10-20%; LD50 [4, 5]: 12.2 mg/kg; LD50 [4, 6]: 455 mg/kg |
| COC(=O)C1=C(Cl)NC(C)=C(C(=O)OCCN2CCN(C3c4ccccc4-c4ccccc43)CC2)C1c1cccc([N+](=O)[O-])c1 (stereo not drawn) [SUN 5018] | 0.0043 mg/kg | 15.5 min | – |
| COC(=O)C1=C(Cl)NC(C)=C(C(=O)OC(C)C)C1c1cccc([N+](=O)[O-])c1 (stereo not drawn) [SUN 5141] | 0.00028 mg/kg | 10.6 min | ED50 [2]: 0.05 μg/heart; Blood pressure drop, Maximum drop [3]: 51%; Blood pressure drop, 6 hours [3]: 33%; LD50 [4, 5]: 80 mg/kg |
| COC(=O)C1=C(C)NC(Cl)=C(C(=O)OC)C1c1ccccc1[N+](=O)[O-] (stereo not drawn) [SUN 4671] | 0.00059 mg/kg | – | – |
| COC(=O)C1=C(Cl)NC(C)=C(C(=O)OC(CN(C)Cc2ccccc2)c2ccccc2)C1c1cccc([N+](=O)[O-])c1 (stereo not drawn) [SUN 5181] | 0.0021 mg/kg | – | – |
| COCCOC(=O)C1=C(C)NC(Cl)=C(C(=O)OC)C1c1cccc([N+](=O)[O-])c1 (stereo not drawn) [SUN 5220] | 0.0058 mg/kg | 13.5 min | – |
| COC(=O)C1=C(Cl)NC(C)=C(C(=O)OCCN2CCN(C(c3ccccc3)c3ccccc3)CC2)C1c1cccc([N+](=O)[O-])c1 (stereo not drawn) [SUN 4752, 5-[2-(4-Benzhydrylpiperazin-1-yl)ethyl]oxycarbonyl-2-chloro-3-methoxycarbonyl-6-methyl-4-(3-nitrophenyl)-1,4-dihydropyridine] | 0.003 mg/kg | > 30 min | Blood pressure drop, Maximum drop [3]: 35%; Blood pressure drop, 6 hours [3]: 30%; LD50 [4, 5]: 23 to 27 mg/kg; LD50 [4, 6]: 1000 mg/kg |
| COC(=O)C1=C(C)NC(Cl)=C(C(=O)OC)C1c1cccc([N+](=O)[O-])c1 (stereo not drawn) [SUN 4616] | 0.0012 mg/kg | – | – |
| COC(=O)C1=C(Cl)NC(C)=C(C(=O)OCCN(C)Cc2ccccc2)C1c1cccc([N+](=O)[O-])c1 (stereo not drawn) [SUN 5017] | 0.0033 mg/kg | 17.0 min | – |
| COC(=O)C1=C(Cl)NC(C)=C(C(=O)OCCc2cccs2)C1c1cccc([N+](=O)[O-])c1 (stereo not drawn) [SUN 5163] | 0.0093 mg/kg | 14.0 min | – |
